Assay results taken from PMC8524670 (Pharmacology Research & Perspectives, 2021).

Assays:
CYP3A [1] = target: CYP3A (Homo sapiens, UniProt P08684); experiment: CYP reversible inhibition in HLMs; conditions: for R1: DDI basic model, hepatic; for R1 , gut: intestinal CYP3A, basic model; for Ag / Ah: static model term; for Ag: gut inhibition; for Ah: liver inhibition
OATP1B1 [2] = target: T1, OATP1B1 (Homo sapiens, UniProt Q9Y6L6); experiment: SLC transportation assay in HEK293 cells; type: in vitro ADME; conditions: uptake ratios <2 at 0.1, 0.3, 5 µM
T1 sequence (Q9Y6L6 1-691): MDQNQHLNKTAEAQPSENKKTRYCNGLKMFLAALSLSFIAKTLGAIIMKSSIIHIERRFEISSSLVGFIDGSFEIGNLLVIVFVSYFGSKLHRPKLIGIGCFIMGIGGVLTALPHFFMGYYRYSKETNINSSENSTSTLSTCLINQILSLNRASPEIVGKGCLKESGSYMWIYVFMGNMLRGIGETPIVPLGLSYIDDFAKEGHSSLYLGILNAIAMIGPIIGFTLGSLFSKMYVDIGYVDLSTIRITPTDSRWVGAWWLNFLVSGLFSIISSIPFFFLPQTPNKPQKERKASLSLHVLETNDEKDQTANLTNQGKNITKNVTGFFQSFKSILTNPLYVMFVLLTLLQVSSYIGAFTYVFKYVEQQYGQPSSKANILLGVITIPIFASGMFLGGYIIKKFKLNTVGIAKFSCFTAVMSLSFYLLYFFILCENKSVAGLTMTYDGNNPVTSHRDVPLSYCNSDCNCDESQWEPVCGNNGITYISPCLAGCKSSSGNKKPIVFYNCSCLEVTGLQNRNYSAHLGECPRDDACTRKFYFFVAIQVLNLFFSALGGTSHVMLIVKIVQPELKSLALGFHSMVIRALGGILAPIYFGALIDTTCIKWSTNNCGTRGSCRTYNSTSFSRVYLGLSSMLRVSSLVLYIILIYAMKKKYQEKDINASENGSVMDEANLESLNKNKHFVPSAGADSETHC

OATP1B1 [3] = target: T1, OATP1B1; experiment: SLC inhibition assay in HEK293 cells; type: in vitro ADME; conditions: 0.05–5 µM
OCT2 = target: T2, OCT2 (Homo sapiens, UniProt O15244); experiment: SLC transportation assay in HEK293 cells; type: in vitro ADME; conditions: uptake ratios <2 at 0.1, 0.3, 5 µM
T2 sequence (O15244 1-555): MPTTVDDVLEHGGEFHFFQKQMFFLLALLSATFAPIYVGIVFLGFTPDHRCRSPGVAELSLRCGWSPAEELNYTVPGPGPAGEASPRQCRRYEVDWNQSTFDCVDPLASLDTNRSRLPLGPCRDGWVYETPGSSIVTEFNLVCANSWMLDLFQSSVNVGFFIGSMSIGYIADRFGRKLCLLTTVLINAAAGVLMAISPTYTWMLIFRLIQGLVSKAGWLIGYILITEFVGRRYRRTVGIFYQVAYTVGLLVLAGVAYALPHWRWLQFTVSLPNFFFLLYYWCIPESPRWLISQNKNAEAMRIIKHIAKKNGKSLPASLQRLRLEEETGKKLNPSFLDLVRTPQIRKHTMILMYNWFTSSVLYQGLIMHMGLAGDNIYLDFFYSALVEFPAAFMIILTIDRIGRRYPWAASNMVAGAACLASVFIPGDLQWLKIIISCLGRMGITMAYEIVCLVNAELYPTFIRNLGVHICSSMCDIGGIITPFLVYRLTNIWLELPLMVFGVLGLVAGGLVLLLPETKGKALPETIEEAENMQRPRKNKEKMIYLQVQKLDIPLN

CYP3A [4] = experiment: Time-dependent CYP inhibition in HLMs; conditions: 10 µM zanubrutinib, 30 min pre-incubation with HLMs and NADPH
BCRP = conditions: coadministration of zanubrutinib; cited from earlier work
CYP2C19 [5] = target: CYP2C19 (Homo sapiens, UniProt P33261); experiment: CYP reversible inhibition in HLMs; conditions: S-mephenytoin
human BCRP = target: T3, human BCRP (Homo sapiens, UniProt Q9UNQ0); experiment: BCRP inhibition in vesicles; type: in vitro ADME; conditions: 0.05–5 µM
T3 sequence (Q9UNQ0 1-655): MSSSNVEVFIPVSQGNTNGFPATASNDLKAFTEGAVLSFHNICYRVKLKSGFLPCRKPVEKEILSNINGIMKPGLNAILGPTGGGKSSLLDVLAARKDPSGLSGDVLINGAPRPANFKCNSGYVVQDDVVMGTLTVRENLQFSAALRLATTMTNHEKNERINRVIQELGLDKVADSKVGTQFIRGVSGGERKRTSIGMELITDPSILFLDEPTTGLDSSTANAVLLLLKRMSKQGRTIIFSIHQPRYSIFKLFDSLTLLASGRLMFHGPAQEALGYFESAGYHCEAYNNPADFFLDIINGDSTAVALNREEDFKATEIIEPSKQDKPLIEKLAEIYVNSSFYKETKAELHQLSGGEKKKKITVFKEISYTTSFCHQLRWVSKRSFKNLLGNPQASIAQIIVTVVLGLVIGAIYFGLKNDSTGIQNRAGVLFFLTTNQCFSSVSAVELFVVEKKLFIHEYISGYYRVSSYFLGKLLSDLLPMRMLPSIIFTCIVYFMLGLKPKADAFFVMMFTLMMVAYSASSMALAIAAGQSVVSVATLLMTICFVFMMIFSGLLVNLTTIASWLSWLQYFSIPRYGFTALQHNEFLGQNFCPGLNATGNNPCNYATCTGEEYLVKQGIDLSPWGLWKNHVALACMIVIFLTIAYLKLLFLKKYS

[6] = cited from earlier work
CYP2C19 [7] = conditions: coadministration of zanubrutinib; cited from earlier work

CYP3A (Homo sapiens, UniProt P08684), sequence (P08684 2-503): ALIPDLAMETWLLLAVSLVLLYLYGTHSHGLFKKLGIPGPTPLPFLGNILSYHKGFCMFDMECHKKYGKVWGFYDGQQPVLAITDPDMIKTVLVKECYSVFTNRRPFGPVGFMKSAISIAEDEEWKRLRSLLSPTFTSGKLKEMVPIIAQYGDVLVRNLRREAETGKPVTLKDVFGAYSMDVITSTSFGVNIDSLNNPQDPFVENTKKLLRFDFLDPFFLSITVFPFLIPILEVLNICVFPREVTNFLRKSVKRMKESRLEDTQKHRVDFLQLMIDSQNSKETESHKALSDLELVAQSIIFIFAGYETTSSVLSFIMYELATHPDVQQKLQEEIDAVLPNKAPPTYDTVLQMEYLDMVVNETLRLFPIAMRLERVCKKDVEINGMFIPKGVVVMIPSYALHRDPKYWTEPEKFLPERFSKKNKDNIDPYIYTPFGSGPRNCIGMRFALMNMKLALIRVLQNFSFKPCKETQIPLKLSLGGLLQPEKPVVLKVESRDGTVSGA
CYP2C19 (Homo sapiens, UniProt P33261), sequence (P33261 whole entry): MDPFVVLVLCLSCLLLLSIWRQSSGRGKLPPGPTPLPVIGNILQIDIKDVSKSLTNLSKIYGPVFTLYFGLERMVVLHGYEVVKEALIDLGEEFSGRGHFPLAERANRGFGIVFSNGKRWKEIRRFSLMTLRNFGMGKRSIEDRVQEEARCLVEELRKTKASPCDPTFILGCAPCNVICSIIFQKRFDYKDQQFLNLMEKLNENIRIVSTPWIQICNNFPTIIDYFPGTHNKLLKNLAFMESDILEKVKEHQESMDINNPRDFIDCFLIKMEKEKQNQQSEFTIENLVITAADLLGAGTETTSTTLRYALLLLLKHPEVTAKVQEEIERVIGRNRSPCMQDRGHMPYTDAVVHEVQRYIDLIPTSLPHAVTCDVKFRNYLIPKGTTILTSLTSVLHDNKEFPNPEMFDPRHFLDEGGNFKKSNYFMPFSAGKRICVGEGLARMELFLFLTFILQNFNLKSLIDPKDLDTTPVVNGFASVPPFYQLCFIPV

C=CC(=O)N1CCC([C@@H]2CCNc3c(C(N)=O)c(-c4ccc(Oc5ccccc5)cc4)nn32)CC1 [zanubrutinib]
R1 (CYP3A [1]; midazolam): 1.00 | R1 , gut (CYP3A [1]; midazolam): 241 | Ag (CYP3A [1]; midazolam): 0.45 | Ah (CYP3A [1]; midazolam): 0.99 | R1 (CYP3A [1]; testosterone): 1.00 | R1 , gut (CYP3A [1]; testosterone): 58 | Ag (CYP3A [1]; testosterone): 0.77 | Ah (CYP3A [1]; testosterone): 1.00 | Substrate status (OATP1B1 [2]): unlikely to be a substrate | Inhibition of uptake activity (OATP1B1 [3]): not inhibited | Substrate status (OCT2): unlikely to be a substrate | Percent loss of enzymatic activity (CYP3A [4]): 19.2% | Effect on exposure of BCRP probe rosuvastatin (BCRP): did not significantly affect the exposure | R1 (CYP2C19 [5]; DDI basic model, hepatic): 1.03 | Ah (CYP2C19 [5]; static model term, liver inhibition): 0.97 | BCRP inhibition (human BCRP): did not inhibit BCRP activity | C max (mean steady‐state concentration) ([6]; 160 mg BID, dose-escalation study, ref data on file): 338 ng/mL | ka (first‐order absorption rate constant) ([6]; estimated from population PK): 0.526 | Reduction of AUC of CYP2C19 probe omeprazole (CYP2C19 [7]): 36.5%
